Laboratory results published in patent publication EP0359821A1, “METHOD OF STERILIZING PLANT ANTHERS” (priority 1988, dated 1989).
Read-outs that look alike come from different tables or passages of the source.

Experiments:
[1] = Toxicity in animal test (result in words)
[2] = tested on: Tetraploider Roggen Sorte Jubileinaya; assay: Field trial of gametocidal activity, tetraploid rye Jubileinaya; conditions: 1% aqueous emulsion, 10 kg/ha
[3] = tested on: Tetraploider Roggen Sorte Gibrid 67; assay: Field trial of gametocidal activity, tetraploid rye Gibrid 67; format: in vivo; conditions: 1% aqueous emulsion, 10 kg/ha; for Prozentsatz des Ansetzens bei freier Bestäubung: control = 100
Description: (§1) Bei Weizen und Tritikale werden Einzelisolatoren verwendet.
Pflanzen von tetraploidem Roggen Sorte Gibrid 67 werden in der V. oder VI.

[4] = in vivo; conditions: mouse, LD50, weisse Mäuse
[5] = tested on: Diploider Roggen Sorte Gibrid 1864/74; assay: Field trial of gametocidal activity, diploid rye Gibrid 1864/74; conditions: 1% aqueous emulsion, 10 kg/ha
[6] = in vivo
[7] = tested on: Winterweizens Sorte Mironovskaya 808; assay: Field trial of gametocidal activity (anther sterilisation), winter wheat; format: in vivo, Weizen; conditions: 2% aqueous emulsion, 20 kg/ha; for response vs control in vivo at 20000 g/ha: control = 100, read-out: Prozentsatz des Ansetzens bei freier Bestäubung
[8] = tested on: Sommerweizen Sorte Moskovskaya 35; assay: Field trial of gametocidal activity, spring wheat; format: in vivo, Weizen; conditions: 1% aqueous emulsion; for Anzahl von Körnern der Ähre bei freier Bestäubung / Anzahl von Körnern der Ähre im Isolator / percent sterility at 10000 g/ha / pest or weed control at 10000 g/ha: 10 kg/ha, V. period; for percent sterility at 10000 g/ha / pest or weed control at 10000 g/ha: read-out: Prozentsatz der Sterilität; for response vs control in vivo: control = 100, read-out: Prozentsatz des Ansetzens bei freier Bestäubung
[9] = tested on: Diploider Roggen Sorte Chulpan; assay: Field trial of gametocidal activity, diploid rye Chulpan; format: in vivo; conditions: single compounds, 1% aqueous emulsion, 10 kg/ha; for response vs control in vivo at 10000 g/ha: read-out: Prozentsatz des Ansetzens bei freier Bestäubung, Chulpan, control = 100; for pest or weed control at 10000 g/ha: read-out: Prozentsatz der Sterilität, Chulpan
Description: as §1
Pflanzen von diploidem Roggen Sorte Chulpan werden in der V. oder VI.
Der Verbrauch an Sterilisationsmitteln beträgt 10 kg/ha.

[10] = tested on: Hirse Sorte Mironovskoe 94; assay: Field trial of gametocidal activity, millet Mironovskoe 94; format: in vivo; conditions: 1% aqueous emulsion, 10 kg/ha; for response vs control in vivo at 10000 g/ha: control = 100, read-out: Prozentsatz des Ansetzens bei freier Bestäubung
[11] = tested on: Sonnenblume Sorte Peredovik; assay: Field trial of pollen sterilisation, sunflower Peredovik; format: in vivo; conditions: 0,2% aqueous emulsion, 1,2 kg/ke (so in the source)
Description: Pflanzen der Sonnenblume Sorte Peredovik werden in der V. oder VI.
Der Verbrauch an Sterilisationsmittel beträgt 1,2 kg/ke.

[12] = in vivo; conditions: rat
[13] = tested on: Sonnenblume Linie VK 119; assay: Field trial of pollen sterilisation, sunflower line VK 119; conditions: 0,2% aqueous emulsion, 1,2 kg/ha
[14] = tested on: Diploider Roggen Sorte Gibrid 340/65; assay: Field trial of gametocidal activity, diploid rye Gibrid 340/65; conditions: Gibrid 340/65 (text: 312/65), 1% aqueous emulsion, 10 kg/ha
[15] = tested on: Tetraploider Roggen Sorte Belta; assay: Field trial of gametocidal activity, tetraploid rye Belta; format: in vivo; conditions: 1% aqueous emulsion, 10 kg/ha
[16] = tested on: weisse Mäuse
[17] = tested on: Hirse Sorte K-9693 Kormovoe 1; assay: Field trial of gametocidal activity, millet K-9693 Kormovoe 1; conditions: 1% aqueous emulsion, 10 kg/ha; for Anzahl von Körnern der Rispe bei freier Bestäubung / Anzahl von Körnern der Rispe im Isolator / Prozentsatz der Sterilität: V. or VI. period; for Prozentsatz des Ansetzens bei freier Bestäubung: control = 100
[18] = V. or VI. period of organogenesis
[19] = V. or VI. period, read-out: Prozentsatz der Sterilität
[20] = Chulpan, V. or VI. period, listed as Beispiel 54
[21] = V. or VI. period, listed as Beispiel 74

OCC(CO)(CO)CO [Beispiel 58, Pentaerythrit]
Toxizität im Tierversuch [1]: praktisch nichttoxische | Anzahl von Körnern der Ähre bei freier Bestäubung ([2]; V. or VI. period): 45,6 | Anzahl von Körnern der Ähre im Isolator ([2]; V. or VI. period): 0,4 | Prozentsatz des Ansetzens bei freier Bestäubung ([2]; control = 100): 94,4%

O=C(O)c1ccc(O)cc1 [Beispiel 28, Monoäthanolaminat der p-Hydroxybenzoesäure]
Prozentsatz der Sterilität ([3]; V. or VI. period): 99,7% | Prozentsatz des Ansetzens bei freier Bestäubung [3]: 93,4% | LD50 [4]: 3200 mg/kg | Anzahl von Körnern der Ähre bei freier Bestäubung ([5]; V. period): 46,7 | Anzahl von Körnern der Ähre im Isolator ([5]; V. period): 1,8 | Prozentsatz der Sterilität ([5]; V. period): 95,6% | Prozentsatz des Ansetzens bei freier Bestäubung ([5]; control = 100): 97,7%

CCC(CO)(CO)CBr [I-Brom-2,2-di-methylol-butan]
Toxizität im Tierversuch [6]: praktisch nichttoxische

OCC(O)CSc1ccccc1F (centres unmarked) [Beispiel 7, 3-(2'-Fluorphenylthio)-propandiol-I,2]
Anzahl von Körnern der Ähre bei freier Bestäubung [7, 18]: 36,7 | Anzahl von Körnern der Ähre im Isolator [7, 18]: 0,0 | response vs control in vivo at 20000 g/ha [7]: 90.6% | Anzahl von Körnern der Ähre bei freier Bestäubung [8]: 24,6 | Anzahl von Körnern der Ähre im Isolator [8]: 0,0 | percent sterility at 10000 g/ha [8]: 100% | response vs control in vivo [8]: 89.5% | Anzahl von Körnern der Ähre bei freier Bestäubung ([9]; Chulpan, V. or VI. period): 53,4 | Anzahl von Körnern der Ähre im Isolator ([9]; Chulpan, V. or VI. period): 0,6 | percent sterility at 10000 g/ha ([9]; Chulpan, V. or VI. period, read-out: Prozentsatz der Sterilität): 98.8% | response vs control in vivo at 10000 g/ha [9]: 94.2% | Anzahl von Körnern der Ähre bei freier Bestäubung ([3]; V. or VI. period): 42,2 | Anzahl von Körnern der Ähre im Isolator ([3]; V. or VI. period): 0,0 | Prozentsatz des Ansetzens bei freier Bestäubung [3]: 94,4% | Anzahl von Körnern der Rispe bei freier Bestäubung ([10]; V. or VI. period): 300,5 | Anzahl von Körnern der Rispe im Isolator ([10]; V. or VI. period): 0,0 | percent pollen sterility at 10000 g/ha [10, 19]: 100% | response vs control in vivo at 10000 g/ha [10]: 79.2% | LD50 [4]: 400 mg/kg

CC(C)OC(=S)S [Beispiel 5, Kaliumisopropylxanthogenat]
Anzahl von Körnern der Ähre bei freier Bestäubung [7, 18]: 35,2 | Anzahl von Körnern der Ähre im Isolator [7, 18]: 2,3 | pest or weed control at 20000 g/ha ([7]; V. or VI. period of organogenesis, read-out: Prozentsatz der Sterilität): 93.7% | response vs control in vivo at 20000 g/ha [7]: 86.2% | Anzahl von Körnern der Ähre bei freier Bestäubung [8]: 24,9 | Anzahl von Körnern der Ähre im Isolator [8]: 2,3 | pest or weed control at 10000 g/ha [8]: 91.5% | response vs control in vivo [8]: 90.5% | Anzahl von Körnern der Ähre bei freier Bestäubung ([9]; Chulpan, V. or VI. period): 51,8 | Anzahl von Körnern der Ähre im Isolator ([9]; Chulpan, V. or VI. period): 0,3 | pest or weed control at 10000 g/ha ([9]; V. or VI. period): 99.4% | response vs control in vivo at 10000 g/ha [9]: 91.4% | Anzahl von Körnern der Rispe bei freier Bestäubung ([10]; V. or VI. period): 288,6 | Anzahl von Körnern der Rispe im Isolator ([10]; V. or VI. period): 0,0 | pest or weed control at 10000 g/ha [10, 19]: 100% | response vs control in vivo at 10000 g/ha [10]: 76% | Pollensterilität in % [11]: 100% | Ansetzen von Achänen im Isolator bei der Bestäubung mit dem Pollengemisch in % ([11]; V. or VI. period): 0,0% | LD50 [12]: 760 mg/kg | Ansetzen von Achänen bei freier Bestäubung in % [13]: 85,3% | Ansetzen von Achänen im Isolator bei der Bestäubung mit dem Pollengemisch in % [13]: 0,0% | Pollensterilität in % [13]: 100% | Anzahl von Körnern der Ähre bei freier Bestäubung ([14]; V. and VI. periods): 44,8 | Anzahl von Körnern der Ähre im Isolator ([14]; V. and VI. periods): 0,0 | Prozentsatz der Sterilität ([14]; V. and VI. periods): 100% | Prozentsatz des Ansetzens bei freier Bestäubung ([14]; control = 100): 83,5%

O=C(O)c1ccccc1F [Beispiel 24, Diätha- nolaminat der o-Fluorbenzoesäure]
Anzahl von Körnern der Ähre bei freier Bestäubung [8]: 27,1 | Anzahl von Körnern der Ähre im Isolator [8]: 2,2 | pest or weed control at 10000 g/ha [8]: 91.9% | response vs control in vivo [8]: 98.5% | Anzahl von Körnern der Ähre bei freier Bestäubung [9, 20]: 54,0 | Anzahl von Körnern der Ähre im Isolator [9, 20]: 0,0 | pest or weed control at 10000 g/ha ([9]; V. or VI. period): 100% | response vs control in vivo at 10000 g/ha [9]: 95.2% | Anzahl von Körnern der Ähre bei freier Bestäubung [15, 21]: 43,8 | Anzahl von Körnern der Ähre im Isolator [15, 21]: 0,9 | pest or weed control at 10000 g/ha [15, 19]: 97.8% | response vs control in vivo at 10000 g/ha ([15]; control = 100, read-out: Prozentsatz des Ansetzens bei freier Bestäubung): 98.9% | Anzahl von Körnern der Rispe bei freier Bestäubung ([10]; V. or VI. period): 348,6 | Anzahl von Körnern der Rispe im Isolator ([10]; V. or VI. period): 0,0 | pest or weed control at 10000 g/ha [10, 19]: 100% | response vs control in vivo at 10000 g/ha [10]: 91.2% | LD50 ([16]; weisse Mäuse, listed as Diäthanolaminsalz der o-Fluarbenzoesäure): 500 mg/kg Tiergewicht

CCC(CO)(CO)CO [Trimethylolpropan]
Toxizität im Tierversuch [6]: praktisch nichttoxische

CCCCOC(=S)S [Beispiel 44, Kaliumbutylxanthogenat]
Anzahl von Körnern der Ähre bei freier Bestäubung ([9]; Chulpan, V. or VI. period): 48,0 | Anzahl von Körnern der Ähre im Isolator ([9]; Chulpan, V. or VI. period): 2,6 | pest or weed control at 10000 g/ha ([9]; V. or VI. period): 96.2% | response vs control in vivo at 10000 g/ha [9]: 84.7% | Pollensterilität in % [11]: 100% | Ansetzen von Achänen bei freier Bestäubung in % ([11]; V. or VI. period): 85,3% | Ansetzen von Achänen im Isolator bei der Bestäubung mit dem Pollengemisch in % ([11]; V. or VI. period): 0,0% | LD50 [12]: 760 mg/kg | Ansetzen von Achänen bei freier Bestäubung in % [13]: 81,5% | Ansetzen von Achänen im Isolator bei der Bestäubung mit dem Pollengemisch in % [13]: 0,0% | Pollensterilität in % [13]: 100% | Anzahl von Körnern der Rispe bei freier Bestäubung [17]: 134,6 | Anzahl von Körnern der Rispe im Isolator [17]: 0,0 | Prozentsatz der Sterilität [17]: 100% | Prozentsatz des Ansetzens bei freier Bestäubung [17]: 91,2%

OCC(O)CSc1ccc(F)cc1 (centres unmarked) [Beispiel I3]
Anzahl von Körnern der Ähre bei freier Bestäubung [7, 18]: 38,2 | Anzahl von Körnern der Ähre im Isolator [7, 18]: 3,2 | response vs control in vivo at 20000 g/ha [7]: 94.3% | Anzahl von Körnern der Ähre bei freier Bestäubung [8]: 26,4 | Anzahl von Körnern der Ähre im Isolator [8]: 2,0 | percent sterility at 10000 g/ha [8]: 92.3% | response vs control in vivo [8]: 96% | LD50 ([16]; mouse, in vivo): 400 mg/kg Tiergewicht | LD50 [4]: ~400 mg/kg | Anzahl von Körnern der Rispe bei freier Bestäubung [17]: 128,7 | Anzahl von Körnern der Rispe im Isolator [17]: 0,0 | Prozentsatz der Sterilität [17]: 100% | Prozentsatz des Ansetzens bei freier Bestäubung [17]: 87,7%

OCC(CO)(CO)CBr [Brommethyl-tri(oxymethyl)-methan]
Toxizität im Tierversuch [1]: praktisch nichttoxische
